Measurements as given in patent US7951385B2, “Probiotic strain and antimicrobial peptide derived therefrom” (Cipla Medpro Research and Development (Pty) Ltd., priority 2006, dated 2011).

What was measured:
[1] = test system: Pseudomonas sp. isolated from infected middle-ear fluid; assay: Activity on paper disks and comparison with antibiotics (inhibition zones); assay type: cell-based
Procedure: Activity was tested against a Pseudomonas sp. isolated from infected middle-ear fluid.

Enterococcus spp. HKLHS = assay: Extracellular DNA after treatment of pathogens with peptide ST4SA; assay type: cell-based; details: Control organism Enterococcus spp. HKLHS
Excerpt: (§1) Further evidence of cell membrane damage and leakage of cellular constituents was obtained by testing for extracellular DNA and extracellular β-galactosidase activity.

Klebsiella pneumoniae = assay: as above; assay type: cell-based; details: Klebsiella pneumoniae 30
Excerpt: as §1

[2] = test system: Middle ear isolates (unknown); assay: as above; assay type: cell-based
Excerpt: as §1

Pseudomonas auringinosa = assay: as above; assay type: cell-based; details: Pseudomonas auringinosa E
Excerpt: as §1

Staphylococcus aureus = assay: as above; assay type: cell-based; details: Staphylococcus aureus 36
Excerpt: as §1

Streptococcus pneumoniae = assay: as above; assay type: cell-based
Excerpt: as §1

Streptococcus pyogenes = assay: as above; assay type: cell-based; details: Streptococcus pyogenes 20
Excerpt: as §1

virulence factors = assay: Virulence factors assayed (in vitro tests and/or PCR screening); parameters: species or system Enterococcus mundtii
Excerpt: The presence of virulence factors, viz. vancomycin resistance (VanA/VanB/VanC1/VanC2/VanC3), production of gelatinase (Gel), aggregation substance (AS), adhesin of collagen from enterococci (Ace), enterococcus surface protein (Esp), haemolysin/bacteriocin (Cyl) and non-cytolysin beta hemolysin genes were studied by in vitro tests and/or PCR screening. DNA was extracted from E. mundtii ST4 according to standard methods. The primers designed for amplification of the latter genes were as described.

[3] = test system: tumour necrosis factor (TNF), interferon γ (IFN); assay: Immune modulation (cytokine RNA hybridization, ileum and colon); assay type: in vivo, rat
Procedure: Total RNA was extracted from the frozen ileum and colon samples using Trizol reagent. The concentration of RNA was determined by measuring the absorbance at 260 nm using a Nanodrop spectrophotometer, after DNase treatment had been completed. Each RNA sample was diluted to a concentration of 42 ng/μl. A total of 5 μg of each sample was transferred in triplicate onto a nylon membrane using a slot blot apparatus. The membrane was then probed with either a tumour necrosis factor (TNF), interferon γ (IFN) or β-actin DNA probe amplified from rat genomic DNA and labeled with DIG. The membrane was exposed to X-ray film overnight and developed.

[4] = test system: Lactobacillus sakei DSM 20017; assay: Binding of peptide ST4SA to polyethylene (PE); assay type: physicochemical
Procedure: Binding of peptide ST4SA to polyethylene (PE) was tested. PE film was cut into sections of 5×5 cm and soaked for 1 h in a solution of 60% isopropanol and peptide ST4SA (activity level: 102 400 AU/ml). The PE sections were air-dried (20 min at 60° C.) and assayed for antimicrobial activity by using the standard agar diffusion method. The plates, seeded with L. sakei DSM 20017, were incubated for 24 h at 30° C. and examined for zones of growth inhibition.
The strength of binding was determined by soaking the peptide-coated PE film in SDS-buffer, followed by electro-eluting peptide ST4SA from the film with a current of 30 mA for 2 h (room temperature, i.e. ca. 25° C.). Samples were taken at regular time intervals and tested for antimicrobial activity. Protein concentrations were determined by using the Bradford method. Electro-eluted film was tested for antimicrobial activity by using the agar diffusion method as before.

pathogens tested = assay: Adhesion of peptide ST4SA to pathogens (summary); assay type: binding; details: conclusion for the pathogens tested (Table 7)
Excerpt: Binding of peptide ST4SA to target cells is important to ensure penetration of the peptide. The ability of peptide ST4SA to adhere to pathogens was studied and the results were expressed as a percentage binding to the pathogens (Table 7). […] Adhesion of peptide ST4SA to the target cell leads to penetration and disruption of the cell membrane (FIG. 14).

Substance: Peptide ST4SA: broad-spectrum antibacterial peptide (bacteriocin) produced by Enterococcus mundtii strain ST4SA, SEQ. ID. NO. 12 (MSQVVGGKYYGNGVSCNKKGCSVDWGKAIGIIGNNSAANLATGGAAGWKS; ENTEROCOCCUS MUNDTII ST4SA)
- Diameter of inhibition zones ([1]; Ampicillin 10 μg, Bacitracin 10 units, Chloramphenicol 30 μg, Erythromycin 15 μg, Tetracycline 30 μg, peptide on paper disk): 25 mm
- Activity of peptide ST4SA on paper disks ([1]; Freeze dried): 409600 AU/ml
- Activity of peptide ST4SA on paper disks ([1]; Paper disk (0.6 cm diameter)): 20263 AU/ml
- Activity of peptide ST4SA on paper disks ([1]; Paper disk (2 cm × 2 cm; 700 μl)): 286720 AU/ml
- DNA-leakage (O.D. readings at 260 nm) (Enterococcus spp. HKLHS): 1.395
- DNA-leakage (O.D. readings at 260 nm) (Klebsiella pneumoniae): 1.01
- DNA-leakage (O.D. readings at 260 nm) ([2]; Middle ear isolate 40): 0.801
- DNA-leakage (O.D. readings at 260 nm) ([2]; Middle ear isolate BW): 1.186
- DNA-leakage (O.D. readings at 260 nm) ([2]; Middle ear isolate DW): 1.153
- DNA-leakage (O.D. readings at 260 nm) ([2]; Middle ear isolate F): 1.428
- DNA-leakage (O.D. readings at 260 nm) ([2]; Middle ear isolate GW): 0.751
- DNA-leakage (O.D. readings at 260 nm) ([2]; Middle ear isolate HW): 1.559
- DNA-leakage (O.D. readings at 260 nm) ([2]; Middle ear isolate K): 0.455
- DNA-leakage (O.D. readings at 260 nm) ([2]; Middle ear isolate L): 0.592
- DNA-leakage (O.D. readings at 260 nm) ([2]; Middle ear isolate M): 0.326
- DNA-leakage (O.D. readings at 260 nm) (Pseudomonas auringinosa): 0.187
- DNA-leakage (O.D. readings at 260 nm) (Staphylococcus aureus): 0.892
- DNA-leakage (O.D. readings at 260 nm) (Streptococcus pneumoniae; Streptococcus pneumoniae 27): 1.670
- DNA-leakage (O.D. readings at 260 nm) (Streptococcus pneumoniae; Streptococcus pneumoniae 29): 1.182
- DNA-leakage (O.D. readings at 260 nm) (Streptococcus pneumoniae; Streptococcus pneumoniae D): 1.160
- DNA-leakage (O.D. readings at 260 nm) (Streptococcus pyogenes): 0.930
- Virulence factor AS (Aggregation substance) (virulence factors): −
- Virulence factor Ace (Adhesin to collagen from E. faecalis) (virulence factors): −
- Virulence factor Cyl (Cytolysin, β-hemolysin activity) (virulence factors): +
- Virulence factor Efa-Afm (E. faecium endocarditis antigen) (virulence factors): −
- Virulence factor Efa-Afs (E. faecalis endocarditis antigen) (virulence factors): −
- Virulence factor Esp (Enterococcus surface protein) (virulence factors): −
- Virulence factor Gel (Gelatinase production) (virulence factors): −
- Virulence factor Non-cyt (non-cytolysin beta hemolysin III) (virulence factors): +
- Virulence factor Van A (Vancomycin resistance) (virulence factors): −
- Virulence factor Van B (Vancomycin resistance) (virulence factors): −
- Virulence factor Van C1/2/3 (virulence factors): −
- Cytokine (TNF or IFN) expression [3]: did not indicate any cytokine (TNF or IFN) expression
- Time to adsorb to PE ([4]; PE film, 60% isopropanol, peptide 102 400 AU/ml): ≤ 60 s
- Antimicrobial activity of peptide-coated PE film ([4]; agar diffusion, L. sakei DSM 20017): high antimicrobial activity
- Time to release of peptide from the surface of PE ([4]; electro-elution, current of 30 mA, SDS-buffer): ≥ 1 h
- percentage binding to the pathogens (pathogens tested): at least 75%
